Laboratory results reported in PMC4603303, “Activity of Novel Synthetic Peptides against Candida albicans” (Scientific Reports, 2015).
Read-outs that look alike come from different tables or passages of the source. Ends that are not written are not given here.

Key:
[1] = tested on: C. albicans SC5314; assay: Time killing assay; type: cell-based, Candida albicans
Protocol: A fungal suspension was adjusted to a 0.5 McFarland turbidity standard with cell density of 1 × 10^6 to 5 × 10^6 cells/ml. 100 μL of adjusted yeast suspension was exposed to 900 μL of RPMI medium containing peptide, yielding a starting inoculum of approximately 10^5 cells/ml. The solutions were incubated at 37°C with agitation. At the predetermined time interval of 0, 1, 2, 4 and 6 hours, 10 μL or 30 μL of the samples were removed, serially diluted with phosphate-buffered saline (PBS) and plated on SDA plates to allow colony counts after 24 hours of incubation. Controls for yeast growth and antifungal agents were also performed. The lower limit of accurate and reproducible quantitation was 100 CFU/ml. Results were obtained from three independent experiments.

[2] = tested on: human erythrocytes; assay: Haemolytic assay; type: cell-based
Protocol: Freshly collected human blood with heparin was centrifuged to remove the buffy coat. The erythrocytes were washed three times with PBS, centrifuged for 10 min at 2000 rpm at 10°C, and resuspended in PBS to 4% (vol/vol). […] PBS and 0.1% Triton X-100 were used as agents to induce 0 and 100% haemolysis, respectively. Plates were incubated for 1 hour at 37°C and centrifuged at 2000 rpm for 10 min. The supernatant (100 μL) was transferred to a 96-well flat-bottomed polystyrene plate, and the release of haemoglobin was monitored by measuring the absorbance at 560 nm using a microplate reader. Results were repeated three times and each time in duplicate. The percentage of haemolysis was calculated using the following formula: [drawing 2] where Ap and A100 represent the absorbance of erythrocytes treated with peptide and 0.1% Triton X-100. A0 is the absorbance of erythrocytes without treatment.

[3] = tested on: Candida albicans SC 5314; assay: MIC, broth microdilution (CLSI M27-A2); type: cell-based
Protocol: (§1) C. albicans strains SC5314 and ATCC 90028, C. krusei ATCC 6258 and C. parapsilosis ATCC 22019 were used in the study. The strains were stored at −80°C in nutrient broth supplemented with 2.0% glycerol stock. Prior to experimentation, each strain was streaked for single colonies on Sabouraud Dextrose (SDA) agar plates and incubated overnight at 37°C.
(§2) Antifungal activity of the designed peptides was determined according to a standardized broth microdilution method (Clinical and Laboratory Standards Institute (CLSI) document M27-A2). Briefly, the yeast colonies from 24- hour-old cultures of Candida species were picked and resuspended in 5 mL of sterile 0.145 mol/L saline and adjusted to cell density of 1 × 10^6 to 5 × 10^6 cells/ml. The yeast stock suspension was then diluted to obtain a starting inoculum of 5.0 × 10^2 to 2.5 × 10^3 cells/ml. […] The drugs were dissolved in DMSO and prepared to a stock concentration of 25 mg/L and 50 mg/L, respectively. […] 100 μL of standardized yeast suspension was then added to each well. Plates were incubated for 48 hours at 37°C. The minimum inhibitory concentration (MIC) was defined as the lowest concentration that inhibited 90% growth of Candida species. The MICs were determined three times and each time in duplicate.

[4] = tested on: Candida krusei ATCC 6258; assay: MIC, broth microdilution (CLSI M27-A2); type: cell-based
Protocol: as §1, §2

[5] = tested on: Candida albicans ATCC 90028; assay: MIC, broth microdilution (CLSI M27-A2); type: cell-based
Protocol: as §1, §2

[6] = tested on: Candida parapsilosis ATCC 22019; assay: MIC, broth microdilution (CLSI M27-A2); type: cell-based
Protocol: as §1, §2

[7] = tested on: Candida strains; assay: MIC, broth microdilution, range stated over several Candida strains; type: cell-based, Candida spp.
Protocol: as §1, §2

[8] = tested on: VK2/E6E7 cell line; assay: cells
Protocol: (§3) The human normal vaginal epithelial cell line VK2/E6E7 (ATCC® CRL-2616™) and human normal esophagus epithelial cell line Het-1A (ATCC® CRL-2692™) were used for cytotoxicity testing. VK2/E6E7 cell line was grown in Keratinocyte-Serum Free medium (GIBCO-BRL 17005-042) supplemented with 0.1 ng/ml human recombinant EGF, 0.05 mg/ml bovine pituitary extract, and 44.1 mg/L calcium chloride. […] Cell viability was measured by using CellTiter 96® Aqueous Non-Radioactive Cell Proliferation Assay (Promega, USA) and the colourimetric changes were determined at 490 nm using a microplate reader. […] Results were recorded by averaging three repeated experiments and each experiment was performed in duplicate.

[9] = tested on: Het-1A cell line; assay: cells
Protocol: as §3

[10] = range against C. albicans and C. krusei

Substance | % killing ([1]; SC5314, 6 h, 2) [%] | mean log decrease in viable cells ([1]; SC5314, 6 h, 2) [log CFU/mL] | Haemolytic activity HC10 ([2]; red cells of human, 1 h) [mg/L] | Haemolytic activity HC50 ([2]; red cells of human, 1 h) [mg/L] | Minimum Inhibitory Concentration (MIC) ([3]; SC 5314, 48 h) [mg/L] | Minimum Inhibitory Concentration (MIC) ([4]; ATCC 6258, 48 h) [mg/L] | Minimum Inhibitory Concentration (MIC) ([5]; ATCC 90028, 48 h) [mg/L] | Minimum Inhibitory Concentration (MIC) ([6]; ATCC 22019, 48 h) [mg/L] | MIC values, range ([7]; 48 h) [mg/L] | IC50 ([8]; 24 h) [mg/L] | IC50 ([8]; 48 h) [mg/L] | IC50 ([8]; 72 h) [mg/L] | IC50 ([9]; 24 h) [mg/L] | IC50 ([9]; 48 h) [mg/L] | IC50 ([9]; 72 h) [mg/L] | other results
GIWKKWIKKWLKVLKNLF-NH2 [KU3] | 99.94 | 3.28 ± 0.30 | 5.65 ± 0.85 | 55.20 ± 11.90 | 8 | 16 | 16 | 8 | 8 to 16 | 4.43 ± 0.39 | 5.32 ± 0.84 | 7.83 ± 1.41 | 4.33 ± 0.52 | 4.62 ± 0.65 | 6.36 ± 1.34 | 
GIWKKWIKKWLKKLKNLF-NH2 [KU4] | > 99.99 | 5.55 ± 0.08 | 49.38 ± 5.14 |  | 32 | 16 | 64 | 32 | 16 to 64 | 8.75 ± 1.04 | 10.55 ± 2.33 | 19.46 ± 4.29 | 9.75 ± 1.34 | 10.47 ± 0.50 | 14.53 ± 1.58 | Haemolytic activity HC50 [2]: > 256 mg/L
GIWKKWIKKVVNVLKNLF-NH2 [KU1] | 99.82 | 2.95 ± 0.59 | 8.07 ± 1.60 | 58.19 ± 2.04 | 16 | 32 | 32 | 16 | 16 to 32 | 4.28 ± 0.60 | 4.71 ± 0.22 | 7.84 ± 1.99 | 3.61 ± 0.19 | 4.59 ± 0.26 | 7.27 ± 1.17 | 
GVIDAAKKVVNVLKNLF-NH2 [Uperin 3.6, reference compound] |  |  |  |  | 64 | 64 | 128 | 128 | 64 to 128 | 17.14 ± 4.32 | 23.59 ± 1.18 | 24.69 ± 6.02 | 17.60 ± 2.52 | 17.94 ± 1.96 | 23.23 ± 2.98 | % killing ([1]; SC5314, 4 h, 2): > 99.99%; mean log decrease in viable cells ([1]; SC5314, 4 h, 2): 5.54 ± 0.13 log CFU/mL; Haemolytic activity HC10 [2]: > 256 mg/L; Haemolytic activity HC50 [2]: > 256 mg/L
GVIKAAKKVVNVLKNLF-NH2 [Upn-lys4] | 99.97 | 4.12 ± 1.36 | >256 | >256 | 64 | 64 | 128 | 64 |  | 15.45 ± 2.64 | 16.55 ± 0.55 | 19.98 ± 1.84 | 14.12 ± 4.35 | 14.71 ± 4.44 | 23.64 ± 2.82 | 
GVIKAAKKVVKVLKKLF-NH2 [Upn-lys6] |  |  | >256 | >256 | 32 | 32 | 64 | 16 |  | 9.07 ± 1.92 | 10.04 ± 3.27 | 9.87 ± 1.46 | 7.49 ± 1.77 | 7.92 ± 1.22 | 11.20 ± 0.86 | % killing ([1]; SC5314, 4 h, 2): > 99.99%; mean log decrease in viable cells ([1]; SC5314, 4 h, 2): 5.56 ± 0.07 log CFU/mL; MIC values, range [7, 10]: 32 to 64 mg/L
GVIKAAKKVVKVLKNLF-NH2 [Upn-lys5] | 99.99 | 4.95 ± 1.24 | >256 | >256 | 32 | 32 | 64 | 32 |  | 8.67 ± 2.21 | 10.28 ± 4.53 | 9.12 ± 1.20 | 9.73 ± 1.19 | 9.83 ± 1.40 | 15.73 ± 0.39 | MIC values, range [7, 10]: 32 to 64 mg/L
GIWKKWIKKWLKKLLKKLWKKG-NH2 [KABT-AMP, reference compound] |  |  |  |  |  |  |  |  |  |  |  |  |  |  |  | % killing ([1]; 2× MIC, within 4 hours): > 99.99%; mean log decrease in viable cells ([1]; 2× MIC, within 4 hours, RPMI, 37°C, mean ± SD of three experiments): 5.4 ± 0.09 log CFU/mL; Haemolytic activity HC10 ([2]; concentration causing 10% haemolysis, 1 hour, 37°C, erythrocyte suspension 4% in PBS, three times in duplicate): 4.67 ± 2.09 mg/L; Haemolytic activity HC50 ([2]; concentration causing 50% haemolysis, 1 hour, 37°C, erythrocyte suspension 4% in PBS, three times in duplicate): 81.23 ± 8.92 mg/L; Minimum Inhibitory Concentration (MIC) ([3]; C. albicans SC 5314, RPMI 1640-MOPS, 48 h, 37°C, lowest concentration inhibiting 90% growth, three times in duplicate): 32 mg/L; Minimum Inhibitory Concentration (MIC) ([4]; C. krusei ATCC 6258, RPMI 1640-MOPS, 48 h, 37°C, lowest concentration inhibiting 90% growth, three times in duplicate): 64 mg/L; Minimum Inhibitory Concentration (MIC) ([5]; C. albicans ATCC 90028, RPMI 1640-MOPS, 48 h, 37°C, lowest concentration inhibiting 90% growth, three times in duplicate): 64 mg/L; Minimum Inhibitory Concentration (MIC) ([6]; C. parapsilosis ATCC 22019, RPMI 1640-MOPS, 48 h, 37°C, lowest concentration inhibiting 90% growth, three times in duplicate): 64 mg/L; MIC values, range ([7]; range against four Candida strains (C. albicans and non-albicans species)): 32 to 64 mg/L
GIWKKWIKKWLNVLKNLF-NH2 [KU2] | 99.73 | 2.77 ± 0.54 | 7.33 ± 0.73 | 57.71 ± 9.80 | 8 | 16 | 16 | 8 | 8 to 16 | 5.42 ± 0.49 | 7.01 ± 0.84 | 11.38 ± 1.75 | 5.51 ± 0.44 | 6.03 ± 0.43 | 8.89 ± 1.40 | 
